From patent US20090042910A1, “QUINOLINE DERIVATIVES FOR TREATING CANCER” (priority 2006, published 2009)

Key:
KDR (VEGFR2) = target: T1, KDR (VEGFR2) (Homo sapiens, UniProt P35968); experiment: In vitro phospho-KDR ELISA assay in HUVECs (Test c); assay type: cell-based; conditions: HUVECs stimulated with VEGF, read-out: IC50 versus phospho-tyrosine formation in KDR
T1 construct: phosphorylation of KDR expressed in human umbilical vein endothelial cells (HUVECs); host or cells: HUVECs (primary human umbilical vein endothelial cells)
Experimental: This assay uses a conventional ELISA method to determine the ability of test compounds to inhibit phosphorylation of tyrosine in KDR (VEGFR2).
Human umbilical vein endothelial cells (HUVECs; PromoCell) were routinely incubated at 37° C. with 7.5% CO2 in ‘growth medium’ comprising MCDB 131 (Gibco Catalogue No. 10372-019; 500 ml) containing L-glutamine (Sigma Catalogue No. G3126; 0.848 g), 1% Penicillin Streptomycin (Gibco Catalogue No. 15140-122) and Fetal Bovine Serum (PAA Laboratories Catalogue No. A15-043; 50 ml).
For the assay, the cells were detached from the culture flask using a trypsin/ethylenediaminetetraacetic acid (EDTA) mixture (Invitrogen Ltd.; Catalogue No. 15400-054) and resuspended in ‘test medium’ comprising MCDB 131 (500 ml) containing L-glutamine (0.848 g), 1% Penicillin Streptomycin and Fetal Bovine Serum (10 ml). Aliquots (1 ml) were seeded into each well of a 24 well tissue culture plate (Corning Life Sciences; Catalogue No. 3527) to give a density of approximately 3.5×10^4 cells per well. The cells were incubated overnight at 37° C. with 7.5% CO2 to allow adherence to the well surface. The following morning the assay medium was decanted and an aliquot (0.5 ml) of ‘serum free medium’ comprising MCDB 131 (500 ml) containing L-glutamine (0.848 g) and 1% Penicillin Streptomycin was added to each well. The plates were incubated at 37° C. for 2.5 hours. […]

PDGFRβ = target: T2, PDGFRβ (Homo sapiens, UniProt P09619); experiment: In vitro phospho-Tyr751 PDGFRβ ELISA assay in MG63 osteosarcoma cells (Test b); assay type: cell-based; conditions: MG63 cells stimulated with PDGFBB, read-out: IC50 versus phospho-Tyr751 formation in PDGFRβ
T2 construct: endogenous in cells; host or cells: MG63 osteosarcoma cells (ATCC)
Experimental: This assay uses a conventional ELISA method to determine the ability of test compounds to inhibit phosphorylation of tyrosine in PDGFRβ.
An MG63 osteosarcoma cell line [American Type Culture Collection (ATCC) CCL 1427] was routinely maintained at 37° C. with 7.5% CO2 in Dulbecco's modified Eagle's growth medium (DMEM; Sigma-Aldrich; Catalogue No. D6546) containing 10% foetal calf serum (FCS; Sigma-Aldrich; Catalogue No. F7524) and 2 mM L-glutamine (Invitrogen Ltd., Paisley, UK; Catalogue No. 25030-024).
For the assay, the cells were detached from the culture flask using a trypsin/ethylenediaminetetraacetic acid (EDTA) mixture (Invitrogen Ltd.; Catalogue No. 15400-054) and resuspended in a test medium comprising DMEM without phenol red (Sigma-Aldrich; Catalogue No. D5921) containing 1% charcoal-stripped foetal calf serum (FCS) (Sigma-Aldrich; Catalogue No. F7524, stripped by incubation with dextran-coated activated charcoal at 55° C. for 30 minutes with continuous stirring followed by removal of the charcoal by centrifugation and filter sterilisation) and 2 mM L-glutamine (Invitrogen Ltd., Catalogue No. 25030-024) to give 6×10^4 cells per ml. […]

T1 sequence (P35968 20-1356): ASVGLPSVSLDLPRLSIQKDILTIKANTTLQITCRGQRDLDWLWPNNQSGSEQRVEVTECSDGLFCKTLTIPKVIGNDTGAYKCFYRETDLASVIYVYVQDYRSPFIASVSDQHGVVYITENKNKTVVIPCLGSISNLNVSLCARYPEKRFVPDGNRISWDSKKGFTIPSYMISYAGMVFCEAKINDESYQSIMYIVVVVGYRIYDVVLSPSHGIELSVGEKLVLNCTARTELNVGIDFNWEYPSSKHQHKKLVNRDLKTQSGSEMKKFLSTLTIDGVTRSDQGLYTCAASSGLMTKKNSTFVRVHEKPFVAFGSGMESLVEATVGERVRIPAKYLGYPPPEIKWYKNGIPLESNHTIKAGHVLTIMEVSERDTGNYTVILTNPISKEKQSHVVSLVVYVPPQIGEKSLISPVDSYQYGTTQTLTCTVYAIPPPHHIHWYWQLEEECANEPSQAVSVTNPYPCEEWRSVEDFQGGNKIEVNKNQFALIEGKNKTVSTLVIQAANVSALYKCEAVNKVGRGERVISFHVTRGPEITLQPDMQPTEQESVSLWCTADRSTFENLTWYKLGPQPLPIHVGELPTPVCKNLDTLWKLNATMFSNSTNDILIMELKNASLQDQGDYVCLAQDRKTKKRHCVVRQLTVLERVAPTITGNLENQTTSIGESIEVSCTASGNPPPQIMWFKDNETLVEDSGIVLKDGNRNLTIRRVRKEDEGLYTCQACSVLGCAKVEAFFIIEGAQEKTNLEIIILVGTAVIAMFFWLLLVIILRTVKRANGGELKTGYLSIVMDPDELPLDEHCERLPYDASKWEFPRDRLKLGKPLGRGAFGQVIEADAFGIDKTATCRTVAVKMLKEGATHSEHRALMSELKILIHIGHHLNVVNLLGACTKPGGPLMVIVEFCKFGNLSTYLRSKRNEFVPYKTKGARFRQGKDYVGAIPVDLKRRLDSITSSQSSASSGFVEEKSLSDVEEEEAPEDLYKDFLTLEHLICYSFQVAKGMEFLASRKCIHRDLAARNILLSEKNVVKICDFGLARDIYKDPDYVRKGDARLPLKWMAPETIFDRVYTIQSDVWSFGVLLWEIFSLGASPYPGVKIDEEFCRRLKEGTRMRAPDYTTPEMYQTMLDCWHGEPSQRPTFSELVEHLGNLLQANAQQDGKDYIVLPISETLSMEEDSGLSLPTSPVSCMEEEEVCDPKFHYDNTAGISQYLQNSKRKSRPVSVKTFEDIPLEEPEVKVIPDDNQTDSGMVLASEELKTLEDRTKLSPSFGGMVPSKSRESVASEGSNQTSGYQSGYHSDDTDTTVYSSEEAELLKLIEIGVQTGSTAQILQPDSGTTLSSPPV
T2 sequence (P09619 33-1106): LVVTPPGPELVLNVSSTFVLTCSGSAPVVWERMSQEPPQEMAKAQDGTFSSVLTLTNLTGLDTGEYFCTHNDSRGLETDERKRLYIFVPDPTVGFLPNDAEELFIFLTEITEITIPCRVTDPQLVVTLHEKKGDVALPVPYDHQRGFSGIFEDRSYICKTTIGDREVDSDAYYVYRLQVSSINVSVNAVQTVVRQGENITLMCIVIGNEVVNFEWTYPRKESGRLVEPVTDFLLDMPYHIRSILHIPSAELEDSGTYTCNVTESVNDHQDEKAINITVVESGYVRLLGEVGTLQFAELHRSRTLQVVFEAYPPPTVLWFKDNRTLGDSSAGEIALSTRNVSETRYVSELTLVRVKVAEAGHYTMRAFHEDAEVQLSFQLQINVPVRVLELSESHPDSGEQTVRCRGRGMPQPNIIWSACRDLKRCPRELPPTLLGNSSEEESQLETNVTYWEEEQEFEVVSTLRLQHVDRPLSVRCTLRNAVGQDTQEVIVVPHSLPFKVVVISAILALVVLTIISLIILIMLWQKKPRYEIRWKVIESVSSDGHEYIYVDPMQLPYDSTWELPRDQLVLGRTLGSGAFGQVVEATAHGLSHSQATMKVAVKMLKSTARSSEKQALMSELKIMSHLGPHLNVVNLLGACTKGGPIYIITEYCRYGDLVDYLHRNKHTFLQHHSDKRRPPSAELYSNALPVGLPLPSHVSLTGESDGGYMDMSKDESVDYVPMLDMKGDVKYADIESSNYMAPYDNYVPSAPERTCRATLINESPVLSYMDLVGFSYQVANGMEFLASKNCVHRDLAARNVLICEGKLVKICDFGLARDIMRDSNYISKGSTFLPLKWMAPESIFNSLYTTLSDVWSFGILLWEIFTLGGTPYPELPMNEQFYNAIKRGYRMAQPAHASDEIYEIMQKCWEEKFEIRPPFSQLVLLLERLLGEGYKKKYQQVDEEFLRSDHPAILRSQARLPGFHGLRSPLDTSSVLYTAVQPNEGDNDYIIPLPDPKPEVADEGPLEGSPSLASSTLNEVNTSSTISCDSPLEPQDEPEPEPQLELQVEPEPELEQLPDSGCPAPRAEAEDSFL

IC50 (KDR (VEGFR2)) [nM] | IC50 (PDGFRβ) [nM] | SMILES
~1000 | ~7 | CCn1cc(NC(=O)Cc2ncc(Oc3ccnc4cc(OC)c(OC)cc34)cn2)cn1 [Example 1, N-(1-ethylpyrazol-4-yl)-2-[5-(6,7-dimethoxyquinolin-4-yloxy)pyrimidin-2-yl]acetamide]
~700 | ~6 | CCc1cc(NC(=O)Cc2ncc(Oc3ccnc4cc(OC)c(OC)cc34)cn2)n[nH]1 [N-(5-ethyl-1H-pyrazol-3-yl)-2-[5-(6,7-dimethoxyquinolin-4-yloxy)pyrimidin-2-yl]acetamide]
